Columns and labels:
Type in all cases: cell-based
E. coli DH5α = experiment: Antibacterial activity: MIC and growth curve against E. coli DH5α in 96-well plate; conditions: minimal inhibitory concentration against E. coli DH5α; 96-well plate, 5×10^5 CFU/mL, 37° C., judged after 8 h
Outline: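 MIC taken as lowest protein level with no bacterial growth, tracked by A600 every 30 min during 37 °C, 175 rpm culture. Two-fold protein series 50-12.5 μg/mL final, triplicate wells, against 5×10^5 CFU/mL of LB-washed mid-log cells.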

E. coli BL21 = experiment: MIC against Gram-negative bacteria: E. coli BL21; conditions: 5×10^5 CFU/mL
Outline: (§1)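 Bacteria grown in LB at 37° C with shaking to McFarland 0.5, pelleted and resuspended in fresh LB, then seeded at 5×10^5 CFU/mL per well. Purified recombinant human EGF domain proteins were two-fold serially diluted in triplicate and plates shaken at 37° C, 175 rpm. MIC is the lowest protein concentration with no bacterial growth.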

Pseudomonas aeruginosa = experiment: MIC against Gram-negative bacteria: Pseudomonas aeruginosa; conditions: 5×10^5 CFU/mL
Outline: as §1

Klebsiella pneumonia = experiment: MIC against Gram-negative bacteria: Klebsiella pneumonia; conditions: 5×10^5 CFU/mL
Outline: as §1

Enterobacter cloacae = experiment: MIC against Gram-negative bacteria: Enterobacter cloacae; conditions: 5×10^5 CFU/mL
Outline: as §1

Aeromonas hydrophila = experiment: MIC against Gram-negative bacteria: Aeromonas hydrophila; conditions: 5×10^5 CFU/mL
Outline: as §1

Citrobacter diversus = experiment: MIC against Gram-negative bacteria: Citrobacter diversus; conditions: 5×10^5 CFU/mL
Outline: as §1

Moraxella catarrhalis = experiment: MIC against Gram-negative bacteria: Moraxella catarrhalis; conditions: 5×10^5 CFU/mL
Outline: as §1

Proteus mirabilis = experiment: MIC against Gram-negative bacteria: Proteus mirabilis; conditions: 5×10^5 CFU/mL
Outline: as §1

Proteus vulgaris = experiment: MIC against Gram-negative bacteria: Proteus vulgaris; conditions: 5×10^5 CFU/mL
Outline: as §1

Serratia marcescens = experiment: MIC against Gram-negative bacteria: Serratia marcescens; conditions: 5×10^5 CFU/mL
Outline: as §1

[1] = E. coli BL21, 96-well plate, 37° C., 10 h
[2] = Pseudomonas aeruginosa, 96-well plate, 37° C., 10 h
[3] = Klebsiella pneumonia, 96-well plate, 37° C., 10 h
[4] = Enterobacter cloacae, 96-well plate, 37° C., 10 h
[5] = Aeromonas hydrophila, 96-well plate, 37° C., 10 h
[6] = Citrobacter diversus, 96-well plate, 37° C., 10 h
[7] = Moraxella catarrhalis, 96-well plate, 37° C., 10 h
[8] = Proteus mirabilis, 96-well plate, 37° C., 10 h
[9] = Proteus vulgaris, 96-well plate, 37° C., 10 h
[10] = Serratia marcescens, 96-well plate, 37° C., 10 h

In the case of “PRT135 (PGHCSSYGSICHNGGKCVEKHNGYLCDCTNSPYEGPFCK; listed as Homo sapiens)”, the MIC (E. coli DH5α) is reported as 25 µg/mL, the “MIC (μg/mL) E. coli BL21” value (E. coli BL21; [1]) is reported as 12.5 µg/mL and the “MIC (μg/mL) P. aeruginosa” value (Pseudomonas aeruginosa; [2]) is reported as 25 µg/mL. The “MIC (μg/mL) K. pneumonia” value (Klebsiella pneumonia; [3]) was 12.5 µg/mL, the “MIC (μg/mL) E. cloacae” value (Enterobacter cloacae; [4]) was 25 µg/mL and the “MIC (μg/mL) A. hydrophila” value (Aeromonas hydrophila; [5]) was 12.5 µg/mL. For the same substance, the “MIC (μg/mL) C. diversus” value (Citrobacter diversus; [6]) was 25 µg/mL, the “MIC (μg/mL) M. catarrhalis” value (Moraxella catarrhalis; [7]) was 50 µg/mL and the “MIC (μg/mL) P. mirabilis” value (Proteus mirabilis; [8]) was 25 µg/mL. The “MIC (μg/mL) P. vulgaris” value (Proteus vulgaris; [9]) was 12.5 µg/mL and the “MIC (μg/mL) S. marcescens” value (Serratia marcescens; [10]) was 50 µg/mL.
For “PRT1288 (ADGPCHGHKCVHGQCVPLDALSYSCQCQDGYSGALCN; listed as Homo sapiens)”, the MIC (E. coli DH5α) was 50 µg/mL, the “MIC against E. coli BL21” value (E. coli BL21; [1]) was 25 µg/mL and the “MIC against P. aeruginosa” value (Pseudomonas aeruginosa; [2]) was 12.5 µg/mL. For the same substance, the “MIC against K. pneumonia” value (Klebsiella pneumonia; [3]) was 25 µg/mL, the “MIC against E. cloacae” value (Enterobacter cloacae; [4]) was 50 µg/mL and the “MIC against A. hydrophila” value (Aeromonas hydrophila; [5]) was 12.5 µg/mL. The “MIC against C. diversus” value (Citrobacter diversus; [6]) was 12.5 µg/mL, the “MIC against M. catarrhalis” value (Moraxella catarrhalis; [7]) was 50 µg/mL and the “MIC against P. mirabilis” value (Proteus mirabilis; [8]) was 12.5 µg/mL. For the same substance, the “MIC against P. vulgaris” value (Proteus vulgaris; [9]) was 25 µg/mL and the “MIC against S. marcescens” value (Serratia marcescens; [10]) was 12.5 µg/mL.
For “PRT720 (INECHDPSISGCDHNCTDTLTSFYCSCRPGYKLMSDKRTCV; listed as Homo sapiens)”, the MIC (E. coli DH5α) was 50 µg/mL, the “MIC E. coli BL21” value (E. coli BL21; 96-well plate, 37° C., 10 h) was 25 µg/mL and the “MIC P. aeruginosa” value (Pseudomonas aeruginosa; 96-well plate, 37° C., 10 h) was 12.5 µg/mL. For the same substance, the “MIC K. pneumonia” value (Klebsiella pneumonia; 96-well plate, 37° C., 10 h) was 12.5 µg/mL, the “MIC E. cloacae” value (Enterobacter cloacae; 96-well plate, 37° C., 10 h) was 50 µg/mL and the “MIC A. hydrophila” value (Aeromonas hydrophila; 96-well plate, 37° C., 10 h) was 12.5 µg/mL. For the same substance, the “MIC C. diversus” value (Citrobacter diversus; 96-well plate, 37° C., 10 h) was 25 µg/mL, the “MIC M. catarrhalis” value (Moraxella catarrhalis; 96-well plate, 37° C., 10 h) was 50 µg/mL and the “MIC P. mirabilis” value (Proteus mirabilis; 96-well plate, 37° C., 10 h) was 25 µg/mL. The “MIC P. vulgaris” value (Proteus vulgaris; 96-well plate, 37° C., 10 h) was 12.5 µg/mL and the “MIC S. marcescens” value (Serratia marcescens; 96-well plate, 37° C., 10 h) was 50 µg/mL.
For “PRT225 (DIDECSYSSYLCQYRCINEPGRFSCHCPQGYQLLATRLCQ; listed as Homo sapiens)”, the MIC (E. coli DH5α) was 12.5 µg/mL, the “MIC (μg/mL) E. coli BL21” value (E. coli BL21; E. coli BL21, 10 h cultivation at 37° C.) was 50 µg/mL and the “MIC (μg/mL) P. aeruginosa” value (Pseudomonas aeruginosa; P. aeruginosa, 10 h cultivation at 37° C.) was 12.5 µg/mL. The “MIC (μg/mL) K. pneumonia” value (Klebsiella pneumonia; K. pneumonia, 10 h cultivation at 37° C.) was 50 µg/mL, the “MIC (μg/mL) E. cloacae” value (Enterobacter cloacae; E. cloacae, 10 h cultivation at 37° C.) was 25 µg/mL and the “MIC (μg/mL) A. hydrophila” value (Aeromonas hydrophila; A. hydrophila, 10 h cultivation at 37° C.) was 12.5 µg/mL. For the same substance, the “MIC (μg/mL) C. diversus” value (Citrobacter diversus; C. diversus, 10 h cultivation at 37° C.) was 25 µg/mL, the “MIC (μg/mL) M. catarrhalis” value (Moraxella catarrhalis; M. catarrhalis, 10 h cultivation at 37° C.) was 50 µg/mL and the “MIC (μg/mL) P. mirabilis” value (Proteus mirabilis; P. mirabilis, 10 h cultivation at 37° C.) was 25 µg/mL. For the same substance, the “MIC (μg/mL) P. vulgaris” value (Proteus vulgaris; P. vulgaris, 10 h cultivation at 37° C.) was 12.5 µg/mL and the “MIC (μg/mL) S. marcescens” value (Serratia marcescens; S. marcescens, 10 h cultivation at 37° C.) was 25 µg/mL.
In the case of “PRT96 (AQRFCPDGSPSECHEHADCVLERDGSRSCVCAVGWAGNGILCG; listed as Homo sapiens)”, the MIC (E. coli DH5α) is reported as 12.5 µg/mL, the “MIC (μg/mL) E. coli BL21” value (E. coli BL21; [1]) is reported as 25 µg/mL and the “MIC (μg/mL) P. aeruginosa” value (Pseudomonas aeruginosa; [2]) is reported as 12.5 µg/mL. The “MIC (μg/mL) K. pneumonia” value (Klebsiella pneumonia; [3]) was 12.5 µg/mL, the “MIC (μg/mL) E. cloacae” value (Enterobacter cloacae; [4]) was 12.5 µg/mL and the “MIC (μg/mL) A. hydrophila” value (Aeromonas hydrophila; [5]) was 12.5 µg/mL. The “MIC (μg/mL) C. diversus” value (Citrobacter diversus; [6]) was 12.5 µg/mL, the “MIC (μg/mL) M. catarrhalis” value (Moraxella catarrhalis; [7]) was 12.5 µg/mL and the “MIC (μg/mL) P. mirabilis” value (Proteus mirabilis; [8]) was 12.5 µg/mL. The “MIC (μg/mL) P. vulgaris” value (Proteus vulgaris; [9]) was 25 µg/mL and the “MIC (μg/mL) S. marcescens” value (Serratia marcescens; [10]) was 12.5 µg/mL.
In the case of “PRT642 (DVNECDELNNRMSLCKNAKCINTDGSYKCLCLPGYVPSDKPNYCT; listed as Homo sapiens)”, the MIC (E. coli DH5α) is reported as 12.5 µg/mL, the “MIC E. coli BL21” value (E. coli BL21; 96-well plate, 37° C., 10 h) is reported as 50 µg/mL and the “MIC P. aeruginosa” value (Pseudomonas aeruginosa; 96-well plate, 37° C., 10 h) is reported as 25 µg/mL. The “MIC K. pneumonia” value (Klebsiella pneumonia; 96-well plate, 37° C., 10 h) was 12.5 µg/mL, the “MIC E. cloacae” value (Enterobacter cloacae; 96-well plate, 37° C., 10 h) was 25 µg/mL and the “MIC A. hydrophila” value (Aeromonas hydrophila; 96-well plate, 37° C., 10 h) was 50 µg/mL. For the same substance, the “MIC C. diversus” value (Citrobacter diversus; 96-well plate, 37° C., 10 h) was 25 µg/mL, the “MIC M. catarrhalis” value (Moraxella catarrhalis; 96-well plate, 37° C., 10 h) was 12.5 µg/mL and the “MIC P. mirabilis” value (Proteus mirabilis; 96-well plate, 37° C., 10 h) was 25 µg/mL. For the same substance, the “MIC P. vulgaris” value (Proteus vulgaris; 96-well plate, 37° C., 10 h) was 50 µg/mL and the “MIC S. marcescens” value (Serratia marcescens; 96-well plate, 37° C., 10 h) was 25 µg/mL.
In the case of “PRT1496 (EISKCPQPCRNGGKCIGKSKCKCSKGYQGDLCS; listed as Homo sapiens)”, the MIC (E. coli DH5α) is reported as 50 µg/mL, the “MIC (μg/mL) E. coli BL21” value (E. coli BL21; [1]) is reported as 25 µg/mL and the “MIC (μg/mL) P. aeruginosa” value (Pseudomonas aeruginosa; [2]) is reported as 12.5 µg/mL. The “MIC (μg/mL) K. pneumonia” value (Klebsiella pneumonia; [3]) was 12.5 µg/mL, the “MIC (μg/mL) E. cloacae” value (Enterobacter cloacae; [4]) was 100 µg/mL and the “MIC (μg/mL) A. hydrophila” value (Aeromonas hydrophila; [5]) was 50 µg/mL. The “MIC (μg/mL) C. diversus” value (Citrobacter diversus; [6]) was 50 µg/mL, the “MIC (μg/mL) M. catarrhalis” value (Moraxella catarrhalis; [7]) was 12.5 µg/mL and the “MIC (μg/mL) P. mirabilis” value (Proteus mirabilis; [8]) was 50 µg/mL. The “MIC (μg/mL) P. vulgaris” value (Proteus vulgaris; [9]) was 100 µg/mL and the “MIC (μg/mL) S. marcescens” value (Serratia marcescens; [10]) was 25 µg/mL.

Reference: patent US9833497B2, “Human originated EGF domain proteins and use of the same” (CHENGDU SOURCEBIO LIMITED-LIABILITY COMPANY, priority 2013, dated 2017)
